Experiments:
Assay type in all cases: biochemical
hCA I = hCA I (Homo sapiens, UniProt P00915); experiment: stopped-flow CO2 hydrase assay, hCA I; settings: stopped flow technique, mean from three assays
hCA II = hCA II (Homo sapiens, UniProt P00918); experiment: stopped-flow CO2 hydrase assay, hCA II; settings: stopped flow technique, mean from three assays
hCA IV = hCA IV (Homo sapiens, UniProt P22748); experiment: stopped-flow CO2 hydrase assay, hCA IV; settings: stopped flow technique, mean from three assays
hCA IX = hCA IX (Homo sapiens, UniProt Q16790); experiment: biochemical; settings: for Ki: KI hCA IX, stopped flow technique, mean from three assays; for Selectivity index I/IX: ratio KI hCA I / KI hCA IX; for Selectivity index II/IX: ratio KI hCA II / KI hCA IX; for Selectivity index IV/IX: ratio KI hCA IV / KI hCA IX
hCA XII = hCA XII (Homo sapiens, UniProt O43570); experiment: stopped-flow CO2 hydrase assay, hCA XII; settings: for Ki: KI hCA XII, stopped flow technique, mean from three assays; for Selectivity index I/XII: ratio KI hCA I / KI hCA XII; for Selectivity index II/XII: ratio KI hCA II / KI hCA XII; for Selectivity index IV/XII: ratio KI hCA IV / KI hCA XII
hCA XII, sequence (O43570 25-354): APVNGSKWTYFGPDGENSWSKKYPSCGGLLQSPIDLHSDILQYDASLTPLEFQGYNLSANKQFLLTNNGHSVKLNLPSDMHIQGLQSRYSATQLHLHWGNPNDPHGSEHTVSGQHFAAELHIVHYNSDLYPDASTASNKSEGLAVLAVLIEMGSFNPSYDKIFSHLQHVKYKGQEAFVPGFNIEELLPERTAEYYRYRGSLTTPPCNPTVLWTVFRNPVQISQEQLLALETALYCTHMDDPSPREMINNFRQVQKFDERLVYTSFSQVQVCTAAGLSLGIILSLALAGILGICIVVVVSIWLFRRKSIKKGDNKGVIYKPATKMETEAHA

hCA I, sequence (P00915 whole entry): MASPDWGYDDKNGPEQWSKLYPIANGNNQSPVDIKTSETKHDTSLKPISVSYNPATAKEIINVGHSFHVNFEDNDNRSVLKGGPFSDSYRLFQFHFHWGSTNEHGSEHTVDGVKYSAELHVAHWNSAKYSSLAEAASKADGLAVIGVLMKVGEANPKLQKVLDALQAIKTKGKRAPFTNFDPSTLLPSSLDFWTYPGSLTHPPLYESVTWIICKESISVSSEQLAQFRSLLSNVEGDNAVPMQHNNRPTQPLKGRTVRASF
hCA IV, sequence (P22748 19-284 limits assumed): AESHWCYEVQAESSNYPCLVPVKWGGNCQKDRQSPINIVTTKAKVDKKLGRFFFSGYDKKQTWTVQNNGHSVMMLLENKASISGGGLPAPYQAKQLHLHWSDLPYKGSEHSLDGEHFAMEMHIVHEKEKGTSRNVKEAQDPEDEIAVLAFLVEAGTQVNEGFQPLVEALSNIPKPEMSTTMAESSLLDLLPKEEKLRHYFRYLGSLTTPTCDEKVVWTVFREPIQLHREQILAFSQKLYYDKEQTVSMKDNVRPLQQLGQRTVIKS

NS(=O)(=O)c1ccc(Nc2nc3nccc(-c4ccc([N+](=O)[O-])cc4)n3n2)cc1 [Compound 1q, 4-((7-(4-Nitrophenyl)-[1,2,4]triazolo[1,5-a]pyrimidin-2-yl)amino)benzenesulfonamide]
Ki (hCA I): 4.29 µM | Ki (hCA II): 0.0863 µM | Ki (hCA IV): 3.26 µM | Ki (hCA IX): 0.0694 µM | Selectivity index I/IX (hCA IX): 61.8 | Selectivity index II/IX (hCA IX): 1.2 | Selectivity index IV/IX (hCA IX): 46.9 | Ki (hCA XII): 0.0421 µM | Selectivity index I/XII (hCA XII): 102 | Selectivity index II/XII (hCA XII): 2.0 | Selectivity index IV/XII (hCA XII): 77.4

NS(=O)(=O)c1ccc(Nc2nc3nccc(-c4cccnc4)n3n2)cc1 [Compound 1d, 4-((7-(Pyridin-3-yl)-[1,2,4]triazolo[1,5-a]pyrimidin-2-yl)amino)benzenesulfonamide]
Ki (hCA I): 0.602 µM | Ki (hCA II): 0.0248 µM | Ki (hCA IV): 0.333 µM | Ki (hCA IX): 0.0051 µM | Ki (hCA XII): 0.0088 µM

NS(=O)(=O)c1ccc(Nc2nc3nccc(-c4cccc(Br)c4)n3n2)cc1 [Compound 1o, 4-((7-(3-Bromophenyl)-[1,2,4]triazolo[1,5-a]pyrimidin-2-yl)amino)benzenesulfonamide]
Ki (hCA I): 9.2 µM | Ki (hCA II): 0.133 µM | Ki (hCA IV): 4.33 µM | Ki (hCA IX): 0.0381 µM | Selectivity index I/IX (hCA IX): 241 | Selectivity index II/IX (hCA IX): 3.5 | Selectivity index IV/IX (hCA IX): 114 | Ki (hCA XII): 0.0786 µM | Selectivity index I/XII (hCA XII): 117 | Selectivity index II/XII (hCA XII): 1.7 | Selectivity index IV/XII (hCA XII): 55.1

NS(=O)(=O)c1ccc(Nc2nc3nccc(-c4ccc(I)cc4)n3n2)cc1 [Compound 1p, 4-((7-(4-Iodophenyl)-[1,2,4]triazolo[1,5-a]pyrimidin-2-yl)amino)benzenesulfonamide]
Ki (hCA I): 7.63 µM | Ki (hCA II): 0.559 µM | Ki (hCA IV): 8.85 µM | Ki (hCA IX): 0.0957 µM | Selectivity index I/IX (hCA IX): 79.7 | Selectivity index II/IX (hCA IX): 5.8 | Selectivity index IV/IX (hCA IX): 92.5 | Ki (hCA XII): 0.039 µM | Selectivity index I/XII (hCA XII): 196 | Selectivity index II/XII (hCA XII): 14.3 | Selectivity index IV/XII (hCA XII): 227

Cc1ccccc1-c1ccnc2nc(Nc3ccc(S(N)(=O)=O)cc3)nn12 [Compound 1v, 4-((7-(o-Tolyl)-[1,2,4]triazolo[1,5-a]pyrimidin-2-yl)amino)benzenesulfonamide]
Ki (hCA I): 2.68 µM | Ki (hCA II): 0.0428 µM | Ki (hCA IV): 8.82 µM | Ki (hCA IX): 0.0047 µM | Selectivity index I/IX (hCA IX): 570 | Selectivity index II/IX (hCA IX): 9.1 | Selectivity index IV/IX (hCA IX): 1877 | Ki (hCA XII): 0.0304 µM | Selectivity index I/XII (hCA XII): 88.1 | Selectivity index II/XII (hCA XII): 1.4 | Selectivity index IV/XII (hCA XII): 290

NS(=O)(=O)c1ccc(Nc2nc3nccc(-c4ccncc4)n3n2)cc1 [Compound 1c, 4-((7-(Pyridin-4-yl)-[1,2,4]triazolo[1,5-a]pyrimidin-2-yl)amino)benzenesulfonamide]
Ki (hCA I): 0.725 µM | Ki (hCA II): 0.0437 µM | Ki (hCA IV): 0.726 µM | Ki (hCA IX): 0.0416 µM | Selectivity index I/IX (hCA IX): 17.4 | Selectivity index II/IX (hCA IX): 1.0 | Selectivity index IV/IX (hCA IX): 17.5 | Ki (hCA XII): 0.0153 µM | Selectivity index I/XII (hCA XII): 47.4 | Selectivity index II/XII (hCA XII): 2.9 | Selectivity index IV/XII (hCA XII): 47.5

COc1cc(OC)cc(-c2ccnc3nc(Nc4ccc(S(N)(=O)=O)cc4)nn23)c1 [Compound 1aa, 4-((7-(3,5-Dimethoxyphenyl)-[1,2,4]triazolo[1,5-a]pyrimidin-2-yl)amino)benzenesulfonamide]
Ki (hCA I): 4.53 µM | Ki (hCA II): 0.11 µM | Ki (hCA IV): 1.01 µM | Ki (hCA IX): 0.0468 µM | Selectivity index I/IX (hCA IX): 96.7 | Selectivity index II/IX (hCA IX): 2.4 | Selectivity index IV/IX (hCA IX): 21.5 | Ki (hCA XII): 0.0271 µM | Selectivity index I/XII (hCA XII): 167 | Selectivity index II/XII (hCA XII): 4.1 | Selectivity index IV/XII (hCA XII): 37.2

NS(=O)(=O)c1ccc(Nc2nc3nccc(-c4ccc(Br)cc4)n3n2)cc1 [Compound 1n, 4-((7-(4-Bromophenyl)-[1,2,4]triazolo[1,5-a]pyrimidin-2-yl)amino)benzenesulfonamide]
Ki (hCA I): 3.37 µM | Ki (hCA II): 0.2 µM | Ki (hCA IV): 5.21 µM | Ki (hCA IX): 0.0527 µM | Selectivity index I/IX (hCA IX): 63.8 | Selectivity index II/IX (hCA IX): 3.8 | Selectivity index IV/IX (hCA IX): 98.9 | Ki (hCA XII): 0.0582 µM | Selectivity index I/XII (hCA XII): 57.8 | Selectivity index II/XII (hCA XII): 3.4 | Selectivity index IV/XII (hCA XII): 89.6

NS(=O)(=O)c1ccc(Nc2nc3nccc(-c4cccs4)n3n2)cc1 [Compound 1b, 4-((7-(Thiophen-2-yl)-[1,2,4]triazolo[1,5-a]pyrimidin-2-yl)amino)benzenesulfonamide]
Ki (hCA I): 0.501 µM | Ki (hCA II): 0.0982 µM | Ki (hCA IV): 2.66 µM | Ki (hCA IX): 0.0495 µM | Selectivity index I/IX (hCA IX): 10.1 | Selectivity index II/IX (hCA IX): 2.0 | Selectivity index IV/IX (hCA IX): 53.7 | Ki (hCA XII): 0.0669 µM | Selectivity index I/XII (hCA XII): 7.5 | Selectivity index II/XII (hCA XII): 1.5 | Selectivity index IV/XII (hCA XII): 39.7

NS(=O)(=O)c1ccc(Nc2nc3nccc(-c4cccc(Cl)c4)n3n2)cc1 [Compound 1l, 4-((7-(3-Chlorophenyl)-[1,2,4]triazolo[1,5-a]pyrimidin-2-yl)amino)benzenesulfonamide]
Ki (hCA I): 6.58 µM | Ki (hCA II): 0.124 µM | Ki (hCA IV): 5.98 µM | Ki (hCA IX): 0.0304 µM | Selectivity index I/IX (hCA IX): 216 | Selectivity index II/IX (hCA IX): 4.06 | Selectivity index IV/IX (hCA IX): 197 | Ki (hCA XII): 0.0464 µM | Selectivity index I/XII (hCA XII): 142 | Selectivity index II/XII (hCA XII): 2.7 | Selectivity index IV/XII (hCA XII): 129

NS(=O)(=O)c1ccc(Nc2nc3nccc(-c4ccc(F)cc4)n3n2)cc1 [Compound 1f, 4-((7-(4-Fluorophenyl)-[1,2,4]triazolo[1,5-a]pyrimidin-2-yl)amino)benzenesulfonamide]
Ki (hCA I): 0.763 µM | Ki (hCA II): 0.0827 µM | Ki (hCA IV): 0.993 µM | Ki (hCA IX): 0.0288 µM | Selectivity index I/IX (hCA IX): 26.5 | Selectivity index II/IX (hCA IX): 2.9 | Selectivity index IV/IX (hCA IX): 34.5 | Ki (hCA XII): 0.0624 µM | Selectivity index I/XII (hCA XII): 12.2 | Selectivity index II/XII (hCA XII): 1.3 | Selectivity index IV/XII (hCA XII): 15.9
